Laboratory results from ChEMBL document CHEMBL1154489, “Isolation, structure and antibacterial activity of pleosporone from a pleosporalean ascomycete discovered by using antisense strategy” (Bioorg Med Chem, 2009).
Values after ≈ are worked out from the molar mass of the structure shown. Active and inactive are the calls of the source. The calls are words filed in the database; no cut-off is given here.

Legend:
Staphylococcus aureus [1] = test: Antimicrobial activity against methicillin-sensitive Staphylococcus aureus ATCC 29213 after 20 hrs by twofold serial dilution method; format: functional; conditions: ATCC 29213, 20 h
Staphylococcus aureus [2] = test: Antibacterial activity against Staphylococcus aureus RN450 bearing RPSD antisense S1-782B plasmid after 18 hrs by rpsD sensitized two-plate differential sensitivity assay; format: functional, organism-based
Staphylococcus aureus [3] = test: Antibacterial activity against Staphylococcus aureus RN450 bearing RPSD antisense S1-782B plasmid at 1000 ug/mL after 18 hrs by rpsD sensitized two-plate differential sensitivity assay; format: functional; conditions: RN450, 18 h, read-out: IZ
Staphylococcus aureus [4] = test: Antibacterial activity against wild-type Staphylococcus aureus RN450 at 1000 ug/mL after 18 hrs by rpsD sensitized two-plate differential sensitivity assay; format: functional; conditions: RN450, 18 h, read-out: IZ
Staphylococcus aureus [5] = test: Antibacterial activity against Staphylococcus aureus RN450 bearing RPSD antisense S1-782B plasmid assessed as faint zone of clearance at 31.25 ug/mL after 18 hrs by rpsD sensitized two-plate differential sensitivity assay; format: functional; conditions: RN450, 18 h, read-out: IZ
Staphylococcus aureus [6] = test: Antibacterial activity against wild-type Staphylococcus aureus RN450 assessed as faint zone of clearance at 31.25 ug/mL after 18 hrs by rpsD sensitized two-plate differential sensitivity assay; format: functional, organism-based
Staphylococcus aureus [7] = test: Antibacterial activity against Staphylococcus aureus RN450 bearing RPSD antisense S1-782B plasmid assessed as minimum detection concentration after 18 hrs by rpsD sensitized two-plate differential sensitivity assay; format: functional
Staphylococcus aureus [8] = test: Antimicrobial activity against methicillin-sensitive Staphylococcus aureus MB2865 after 20 hrs by twofold serial dilution method; format: functional
Staphylococcus aureus [9] = test: Antimicrobial activity against methicillin-sensitive Staphylococcus aureus MB2865 after 20 hrs by twofold serial dilution method in presence of 50% human serum; format: functional
Streptococcus pneumoniae [10] = test: Antimicrobial activity against drug-sensitive Streptococcus pneumoniae CL2883 in CAMHB medium containing 2.5% horse blood after 20 hrs by twofold serial dilution method; format: functional
Streptococcus pneumoniae [11] = test: Antimicrobial activity against drug-sensitive Streptococcus pneumoniae CL2883 in isosensitet medium after 20 hrs by twofold serial dilution method; format: functional
Enterococcus faecalis = test: Antimicrobial activity against vancomycin-sensitive macrolide-resistant Enterococcus faecalis CL8516 after 20 hrs by twofold serial dilution method; format: functional
Bacillus subtilis = test: Antimicrobial activity against wild-type Bacillus subtilis MB964 after 20 hrs by twofold serial dilution method; format: functional
Haemophilus influenzae = test: Antimicrobial activity against drug-sensitive Haemophilus influenzae MB4572 after 20 hrs by twofold serial dilution method; format: functional
Escherichia coli [12] = test: Antimicrobial activity against wild-type Escherichia coli MB2884 after 20 hrs by twofold serial dilution method; format: functional
Escherichia coli [13] = test: Antimicrobial activity against Escherichia coli MB5746 envA1, tolC mutant after 20 hrs by twofold serial dilution method; format: functional
Candida albicans = test: Antimicrobial activity against wild-type Candida albicans MY1055 after 20 hrs by twofold serial dilution method; format: functional; conditions: MY1055, 20 h
Staphylococcus aureus [14] = test: Antimicrobial activity against methicillin-sensitive Staphylococcus aureus ATCC 29213 at 16 ug/mL after 20 hrs by twofold serial dilution method; format: functional
Staphylococcus aureus [15] = test: Antimicrobial activity against methicillin-sensitive Staphylococcus aureus MB2865 at 4 ug/mL after 20 hrs by twofold serial dilution method; format: functional
Streptococcus pneumoniae [16] = test: Antimicrobial activity against drug-sensitive Streptococcus pneumoniae CL2883 in isosensitet medium at 2 ug/mL after 20 hrs by twofold serial dilution method; format: functional
HeLa = test: Cytotoxicity against human HeLa cells; format: functional, cell-based
Staphylococcus aureus [17] = test: Inhibition of RNA synthesis in Staphylococcus aureus assessed as [3H]uracil incorporation by scintillation counting; format: functional, organism-based
Staphylococcus aureus [18] = test: Inhibition of DNA synthesis in Staphylococcus aureus assessed as [3H]thymidine incorporation by scintillation counting; format: functional, organism-based
Staphylococcus aureus [19] = test: Inhibition of protein synthesis in Staphylococcus aureus assessed as [3H]leucine incorporation by scintillation counting; format: functional, organism-based
Staphylococcus aureus [20] = test: Ratio of IC50 for RNA synthesis to IC50 for DNA synthesis in Staphylococcus aureus; format: functional
Staphylococcus aureus [21] = test: Ratio of IC50 for RNA synthesis to IC50 for protein synthesis in Staphylococcus aureus; format: functional

In the case of `Cc1cc(O)c2c(c1)C(=O)C1=C(C2=O)[C@@H](O)[C@@H](O)[C@@H](O)C1` [PLEOSPORONE], the MIC (Staphylococcus aureus [1]) is reported as greater than 64 µg/mL, the MIC80 (Staphylococcus aureus [1]) is reported as 4 µg/mL (≈ 13.8 µM) and the Activity (Staphylococcus aureus [2]) is reported as “Dose-dependent effect”. For the same molecule, the zone of inhibition at 1000 µg/mL (Staphylococcus aureus [3]) was 21.8 mm, the zone of inhibition at 1000 µg/mL (Staphylococcus aureus [4]) was 19.2 mm and the zone of inhibition at 31.25 µg/mL (Staphylococcus aureus [5]) was 9 mm. For the same molecule, the Activity (Staphylococcus aureus [6]) was “inactive”, the Activity (Staphylococcus aureus [7]) was 31.25 µg/mL and the MIC (Staphylococcus aureus [8]) was 64 µg/mL (≈ 220 µM). The MIC (Staphylococcus aureus [9]) was greater than 64 µg/mL, the MIC (Streptococcus pneumoniae [10]) was 4 µg/mL (≈ 13.8 µM) and the MIC (Streptococcus pneumoniae [11]) was 4 µg/mL (≈ 13.8 µM). It also gave an MIC (Enterococcus faecalis) of 64 µg/mL (≈ 220 µM), an MIC (Bacillus subtilis) of 8 µg/mL (≈ 27.6 µM) and an MIC (Haemophilus influenzae) of 1 µg/mL (≈ 3.45 µM). It also gave an MIC (Escherichia coli [12]) greater than 64 µg/mL, an MIC (Escherichia coli [13]) of 16 µg/mL (≈ 55.1 µM) and an MIC (Candida albicans) greater than 64 µg/mL. The Activity (Staphylococcus aureus [14]) was 80%, the Activity (Staphylococcus aureus [15]) was 80% and the Activity (Streptococcus pneumoniae [16]) was 80%. For the same molecule, the IC50 (HeLa) was 0.23 µg/mL (≈ 0.792 µM), the IC50 (Staphylococcus aureus [17]) was 1.3 µg/mL (≈ 4.48 µM) and the IC50 (Staphylococcus aureus [18]) was 8.4 µg/mL (≈ 28.9 µM). The IC50 (Staphylococcus aureus [19]) was 15.4 µg/mL (≈ 53.1 µM), the “Ratio IC50” value (Staphylococcus aureus [20]) was 6 and the “Ratio IC50” value (Staphylococcus aureus [21]) was 6.
